# Data from publication PMC10721633 (Nature Communications, 2023).
# B1: DnaA^104–446 (Bacillus subtilis DnaA lacking domains I-II; domains III-IV) (domain or fragment, UniProt P05648 104-446, looked up)
# chain: SDFPQNMLNPKYTFDTFVIGSGNRFAHAASLAVAEAPAKAYNPLFIYGGVGLGKTHLMHAIGHYVIDHNPSAKVVYLSSEKFTNEFINSIRDNKAVDFRNRYRNVDVLLIDDIQFLAGKEQTQEEFFHTFNTLHEESKQIVISSDRPPKEIPTLEDRLRSRFEWGLITDITPPDLETRIAILRKKAKAEGLDIPNEVMLYIANQIDSNIRELEGALIRVVAYSSLINKDINADLAAEALKDIIPSSKPKVITIKEIQRVVGQQFNIKLEDFKAKKRTKSVAFPRQIAMYLSREMTDSSLPKIGEEFGGRDHTTVIHAHEKISKLLADDEQLQQHVKEIKEQLK
# notes: also called DnaA1-7 (the seven protomers in the BUS complex); DnaA^ATP; source: E. coli BL21(DE3)-pLysS, purified (HisTrap, HiTrap Heparin, SUMO protease digestion, second HisTrap flow-through); not shown: His14, N-terminal, cleaved; SUMO, N-terminal, cleaved
# Assays:
# [1] = target: T1, DnaA^104-446 (Bacillus subtilis, UniProt P05648); assay: cryo-EM structure; assay type: binding; settings: BUS DNA scaffold, 2 uM ATP, 1 mM magnesium acetate, pH 7.5, 37 °C, glutaraldehyde crosslinked
# T1 construct: domains III-IV, residues 104-446; His14-SUMO tag cleaved; E. coli BL21(DE3)-pLysS; heptamer on tailed BUS DNA, glutaraldehyde crosslinked
# [2] = target: T2, DnaA (Bacillus subtilis, UniProt P05648); assay: single-molecule TIRF DNA strand separation; assay type: biochemical; settings: BUS DNA scaffold, 50 nM DnaA, 10 mM magnesium acetate, 100 mM potassium glutamate, pH 7.6
# T2 construct: full length; His14-SUMO tag cleaved; E. coli BL21(DE3)-pLysS
# [3] = target: the molecule itself; assay: cryo-EM structure; 4 µM partially ssDNA scaffold with 40 µM DnaA^104–446 monomer, 10 mM HEPES pH 7.5, 100 mM potassium glutamate, 1 mM magnesium acetate, 2 µM ATP, 37 °C 10 min; cross-linked with 0.1% glutaraldehyde, multimeric complex isolated by SEC (Superdex 200); oligomer assembled on DNA
# T2 sequence (P05648 whole entry): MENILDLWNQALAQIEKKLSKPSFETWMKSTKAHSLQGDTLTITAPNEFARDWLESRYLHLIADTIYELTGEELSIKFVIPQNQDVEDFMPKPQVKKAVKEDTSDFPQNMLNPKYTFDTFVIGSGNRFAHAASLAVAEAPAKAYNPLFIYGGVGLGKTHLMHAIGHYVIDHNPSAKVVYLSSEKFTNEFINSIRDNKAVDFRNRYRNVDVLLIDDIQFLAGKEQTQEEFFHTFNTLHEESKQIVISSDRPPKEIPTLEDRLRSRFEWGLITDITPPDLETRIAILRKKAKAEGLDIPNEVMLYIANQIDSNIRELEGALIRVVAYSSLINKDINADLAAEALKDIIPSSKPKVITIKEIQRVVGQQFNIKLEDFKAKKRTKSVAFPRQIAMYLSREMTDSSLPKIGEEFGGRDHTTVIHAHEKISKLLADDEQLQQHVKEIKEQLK
molecule,measurement,setting,value
Nc1ncnc2c1ncn2[C@@H]1O[C@H](COP(=O)(O)OP(=O)(O)OP(=O)(O)O)[C@@H](O)[C@H]1O [ATP],cryo-EM structure,[1],The cryo-EM model reveals seven DnaA^ATP protomers (termed DnaA1-7) engaging the DNA scaffold
same,single-molecule TIRF DNA strand separation,[2],The addition of DnaA^ATP to the immobilized DNA scaffolds stimulated a reduction in the number
B1,stoichiometry N,[3],7
